Measurements: article doi:10.1101/2025.07.30.667614, “Steric control of signaling bias in the immunometabolic receptor GPR84” (bioRxiv, 2025)

Experiments:
[1] = biological target: T1, GPR84 N104A (GPR84-Gi2α fusion protein) (Homo sapiens, UniProt Q9NQS5, N104A); experiment: [35S]GTPγS binding assay; format: biochemical; conditions: [35S]GTPγS; N104A; read-out: Emax ± SEM
T1 construct: FLAG (N); Gαi2-Cys352Ile (fusion partner) (C); expressed in transfected cells
Experimental: (§1) Membranes were generated from Flp-In™ T-REx™ 293 cells following 100 ng/ml doxycycline treatment to induce receptor expression. Cells were washed with ice-cold phosphate-buffered saline (PBS), removed from dishes by scraping and centrifuged at 1,800 x g for 5 min at 4 °C. Pellets were resuspended in TE buffer (10mM Tris-HCl, 0.1 mM EDTA; pH 7.4) containing a protease inhibitor mixture and homogenized with a 5 ml hand-held homogenizer. Samples were centrifuged at 450 x g for 5 min at 4 °C and the supernatant was further centrifuged at 90,000 x g for 45 min at 4 °C. The resulting pellet was resuspended in TE buffer and protein content was assessed using a BCA protein assay kit.
(§2) Prepared membrane protein (3 μg per well) was incubated in assay buffer (20 mM HEPES, 5 mM MgCl2, 160 mM NaCl, 0.05 % fatty-acid-free bovine serum albumin; pH 7.4) containing the indicated ligand concentrations. The reaction was initiated by addition of [^35S]GTPγS (100 nCi per reaction) with 1 μM GDP, and incubated at 30 °C for 60 min. The reaction was terminated by rapid vacuum filtration through GF/C glassfibre filter-bottom 96-well microplates using a UniFilter FilterMate Harvester (PerkinElmer). Unbound radioligand was removed from filters by three washes with ice-cold PBS. Ultima Gold™ XR was added to dried filters, and [^35S]GTPγS binding quantified by liquid scintillation spectroscopy.

GPR84 N362S = biological target: T2, GPR84 N362S (Homo sapiens, UniProt Q9NQS5, N362S); experiment: [35S]GTPγS binding assay; format: biochemical; conditions: [35S]GTPγS; N362S; read-out: Emax ± SEM
T2 construct: FLAG (N); Gαi2-Cys352Ile (fusion partner) (C); expressed in transfected cells
T2 sequence (Q9NQS5 whole entry N362S, the tested form may be a part): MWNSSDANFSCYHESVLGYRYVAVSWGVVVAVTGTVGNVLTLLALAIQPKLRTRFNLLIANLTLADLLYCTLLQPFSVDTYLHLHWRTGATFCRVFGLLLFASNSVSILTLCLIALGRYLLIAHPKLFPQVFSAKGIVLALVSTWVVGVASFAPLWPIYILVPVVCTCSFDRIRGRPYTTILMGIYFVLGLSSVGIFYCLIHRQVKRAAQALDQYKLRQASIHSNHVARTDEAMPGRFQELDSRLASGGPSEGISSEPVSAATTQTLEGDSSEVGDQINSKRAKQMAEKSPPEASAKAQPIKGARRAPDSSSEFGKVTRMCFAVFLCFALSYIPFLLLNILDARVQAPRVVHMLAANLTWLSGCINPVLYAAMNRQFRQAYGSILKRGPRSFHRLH
Experimental: as §1, §2

[2] = biological target: T3, GPR84 R172A (GPR84-Gi2α fusion protein) (Homo sapiens, UniProt Q9NQS5, R172A); experiment: [35S]GTPγS binding assay; format: biochemical
T3 construct: FLAG (N); Gαi2-Cys352Ile (fusion partner) (C); expressed in transfected cells
T3 sequence (Q9NQS5 whole entry R172A, the tested form may be a part): as the sequence (Q9NQS5 whole entry N362S, the tested form may be a part) above, with R172A, S362N counted along it
Experimental: as §1, §2

[3] = biological target: T4, GPR84 S169A (GPR84-Gi2α fusion protein) (Homo sapiens, UniProt Q9NQS5, S169A); experiment: [35S]GTPγS binding assay; format: biochemical; conditions: [35S]GTPγS; S169A; read-out: Emax ± SEM
T4 construct: FLAG (N); Gαi2-Cys352Ile (fusion partner) (C); expressed in transfected cells
T4 sequence (Q9NQS5 whole entry S169A, the tested form may be a part): as the sequence (Q9NQS5 whole entry N362S, the tested form may be a part) above, with S169A, S362N counted along it
Experimental: as §1, §2

[4] = biological target: T5, GPR84 T167A (GPR84-Gi2α fusion protein) (Homo sapiens, UniProt Q9NQS5, T167A); experiment: [35S]GTPγS binding assay; format: biochemical; conditions: [35S]GTPγS; T167A; read-out: Emax ± SEM
T5 construct: FLAG (N); Gαi2-Cys352Ile (fusion partner) (C); expressed in transfected cells
T5 sequence (Q9NQS5 whole entry T167A, the tested form may be a part): as the sequence (Q9NQS5 whole entry N362S, the tested form may be a part) above, with T167A, S362N counted along it
Experimental: as §1, §2

[5] = biological target: T6, GPR84 W360A (GPR84-Gi2α fusion protein) (Homo sapiens, UniProt Q9NQS5, W360A); experiment: [35S]GTPγS binding assay; format: biochemical; conditions: [35S]GTPγS; W360A; read-out: Emax ± SEM
T6 construct: FLAG (N); Gαi2-Cys352Ile (fusion partner) (C); expressed in transfected cells
T6 sequence (Q9NQS5 whole entry W360A, the tested form may be a part): as the sequence (Q9NQS5 whole entry N362S, the tested form may be a part) above, with W360A, S362N counted along it
Experimental: as §1, §2

GPR84 Y332A = biological target: T7, GPR84 Y332A (Homo sapiens, UniProt Q9NQS5, Y332A); experiment: [35S]GTPγS binding assay; format: biochemical; conditions: [35S]GTPγS; Y332A; read-out: Emax ± SEM
T7 construct: FLAG (N); Gαi2-Cys352Ile (fusion partner) (C); expressed in transfected cells
T7 sequence (Q9NQS5 whole entry Y332A, the tested form may be a part): as the sequence (Q9NQS5 whole entry N362S, the tested form may be a part) above, with Y332A, S362N counted along it
Experimental: as §1, §2

GPR84 Y332F = biological target: T8, GPR84 Y332F (Homo sapiens, UniProt Q9NQS5, Y332F); experiment: [35S]GTPγS binding assay; format: biochemical; conditions: [35S]GTPγS; Y332F; read-out: Emax ± SEM
T8 construct: FLAG (N); Gαi2-Cys352Ile (fusion partner) (C); expressed in transfected cells
T8 sequence (Q9NQS5 whole entry Y332F, the tested form may be a part): as the sequence (Q9NQS5 whole entry N362S, the tested form may be a part) above, with Y332F, S362N counted along it
Experimental: as §1, §2

[6] = biological target: T9, GPR84 Y69A (GPR84-Gi2α fusion protein) (Homo sapiens, UniProt Q9NQS5, Y69A); experiment: [35S]GTPγS binding assay; format: biochemical; conditions: [35S]GTPγS; Y69A; read-out: Emax ± SEM
T9 construct: FLAG (N); Gαi2-Cys352Ile (fusion partner) (C); expressed in transfected cells
T9 sequence (Q9NQS5 whole entry Y69A, the tested form may be a part): as the sequence (Q9NQS5 whole entry N362S, the tested form may be a part) above, with Y69A, S362N counted along it
Experimental: as §1, §2

[7] = biological target: T10, GPR84 Y81A (GPR84-Gi2α fusion protein) (Homo sapiens, UniProt Q9NQS5, Y81A); experiment: [35S]GTPγS binding assay; format: biochemical; conditions: [35S]GTPγS; Y81A; read-out: Emax ± SEM
T10 construct: FLAG (N); Gαi2-Cys352Ile (fusion partner) (C); expressed in transfected cells
T10 sequence (Q9NQS5 whole entry Y81A, the tested form may be a part): as the sequence (Q9NQS5 whole entry N362S, the tested form may be a part) above, with Y81A, S362N counted along it
Experimental: as §1, §2

[8] = biological target: GPR84-WT (GPR84-Gi2α fusion protein) (Homo sapiens, UniProt Q9NQS5); experiment: [35S]GTPγS binding assay; format: biochemical; conditions: [35S]GTPγS, GPR84-WT; for EC50: Extended Data Table 3, read-out: pEC50 ± SEM (converted)
Chain of GPR84-WT (GPR84-Gi2α fusion protein) (Q9NQS5 whole entry, the tested form may be a part): as the sequence (Q9NQS5 whole entry N362S, the tested form may be a part) above, with S362N counted along it
Chain of GPR84-WT (GPR84-Gi2α fusion protein) (P04899 with tags, fused parts or gaps C352I partner): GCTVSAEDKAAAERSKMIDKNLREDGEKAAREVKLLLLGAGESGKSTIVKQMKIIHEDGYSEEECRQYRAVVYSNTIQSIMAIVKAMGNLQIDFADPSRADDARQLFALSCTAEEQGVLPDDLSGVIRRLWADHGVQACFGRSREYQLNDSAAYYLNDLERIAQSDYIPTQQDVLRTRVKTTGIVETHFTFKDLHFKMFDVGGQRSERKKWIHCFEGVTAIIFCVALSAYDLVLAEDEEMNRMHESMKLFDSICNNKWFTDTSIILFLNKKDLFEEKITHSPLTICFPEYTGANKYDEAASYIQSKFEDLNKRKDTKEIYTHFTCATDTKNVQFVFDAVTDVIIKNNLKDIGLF
Experimental: as §1, §2

GPR84 [9] = biological target: T11, GPR84 (Homo sapiens, UniProt Q9NQS5); experiment: CHO-K1-based HitHunter cAMP inhibition assay; format: cell-based; conditions: wild type GPR84; for Emax: normalised to capric acid (100 μM), read-out: cAMP %Emax ± SEM; for EC50: CHO-K1 cells, forskolin 25 μM, read-out: cAMP pEC50 ± SEM (converted)
T11 sequence (Q9NQS5 whole entry): as the sequence (Q9NQS5 whole entry N362S, the tested form may be a part) above, with S362N counted along it
Experimental: CHO-K1 cells stably expressing human GPR84 (DiscoverX 95-0158C2) were seeded in 384-well plates at 15,000 cells per well in 20 μL of F12 medium supplemented with 10% fetal bovine serum (FBS), 19 mM HEPES, and 1% penicillin-streptomycin. After overnight incubation at 37 °C and 5% CO2, the medium was removed and replaced with PBS containing 0.1% BSA. Cells were stimulated for 30 min with forskolin (25 μM) and test compounds prepared in Dulbecco’s PBS (DPBS) with 0.1% BSA. Compounds were dissolved in DMSO and diluted appropriately. cAMP levels were quantified using the HitHunter® cAMP Assay for Small Molecules (DiscoverX 90-0075SM2) according to the manufacturer’s protocol. Luminescence was measured 18 h post-assay using a PHERAstar® FS plate reader (BMG Labtech).

wild type GPR84 = biological target: T12, wild type GPR84 (Homo sapiens, UniProt Q9NQS5); experiment: pThr263/pThr264 immunoblot of immunoprecipitated GPR84-eYFP; format: cell-based; conditions: 1 μM
T12 construct: expressed in transfected cells
T12 sequence (Q9NQS5 whole entry): as the sequence (Q9NQS5 whole entry N362S, the tested form may be a part) above, with S362N counted along it
Experimental: eYFP-linked receptor constructs were immunoprecipitated from 200 μl cell lysates using GFP-Trap® agarose beads (Proteintech) according to manufacturer’s instructions. Immunocomplexes were washed three times in washing buffer, resuspended in 100 μl 2 × SDS-PAGE sample buffer and incubated at 60 °C for 10 min. Following centrifugation at 2500g for 5 min, 20 μl of immunoprecipitated proteins was resolved by SDS-PAGE on 4% to 12% BisTris gels. After separation, the proteins were transferred electrophoretically onto nitrocellulose membrane, which was then blocked using 5% bovine serum albumin (BSA) in Tris-buffered saline (TBS, 50 mM Tris-Cl, 150 mM NaCl, pH 7.6) for 1 h at room temperature on an orbital shaker. The membrane was then incubated with appropriate primary antibody in 5% BSA in TBS supplemented with 0.1% Tween (TBS-T) overnight at 4 °C. Anti-pThr^263/pThr^264 antiserum was diluted 1:2000 and anti-GFP was diluted 1:10,000. Subsequently, the membrane was washed (3 × 10 min with TBS-T) and incubated for 2 h with anti-rabbit secondary antibody diluted 1:10,000 in 5% BSA in TBS-T. After washing (3 × 10 min with TBS-T), proteins were detected using an Odyssey imaging system (Licor) according to the manufacturer’s instructions.

GPR84 [10] = biological target: T11, GPR84; experiment: CHO-K1-based PathHunter β-arrestin-2 recruitment assay; format: cell-based; set-up: host or cells: CHO-K1; conditions: for Emax: read-out: β-arrestin-2 %Emax ± SEM; for EC50: wild type GPR84, CHO-K1 PathHunter, read-out: β-arrestin-2 pEC50 ± SEM (converted); for change in efficacy in β-arrestin-2 recruitment: compared to OX04929 (so in the source)
Experimental: Cells were stimulated with test ligands for 90 min. Compounds were prepared at 5× concentration in DPBS containing 0.1% BSA and 0.125% Tween-80 to minimise aggregation. β-arrestin recruitment was quantified using the PathHunter® β-Arrestin Assay (DiscoverX 93-0001) following the manufacturer’s instructions. Luminescence was recorded after 18 h using a PHERAstar® FS plate reader.

T1 sequence (Q9NQS5 whole entry N104A, the tested form may be a part): as the sequence (Q9NQS5 whole entry N362S, the tested form may be a part) above, with N104A, S362N counted along it

SMILES | Emax (GPR84 [9]) | Emax (GPR84 [10]) | EC50 (GPR84 [9]) | EC50 (GPR84 [10]) | change in efficacy in β-arrestin-2 recruitment (GPR84 [10]) | other results
CCCCCCCc1cc(O)c[n+]([O-])c1 [OX04539] | 100 ± 0.8% | 100% |  |  |  | Emax [1]: 150 ± 23%; Emax (GPR84 N362S): 196 ± 32%; Emax [2]: 42 ± 4%; Emax [3]: 84 ± 4%; Emax [4]: 139 ± 7%; Emax [5]: 94 ± 13%; Emax (GPR84 Y332A): 57 ± 10%; Emax (GPR84 Y332F): 167 ± 2%; Emax [6]: 101 ± 14%; Emax [7]: 134 ± 5%; Emax ([8]; Extended Data Tables 1 and 5, read-out: Emax ± SEM): 150 ± 14%; phosphorylation of Thr263 and Thr264 (immunoblot) (wild type GPR84): promoted phosphorylation
[O-][n+]1cc(O)cc(CCCCc2ccc(Cl)cc2)c1 [OX04540] | 97 ± 0.7% | 81 ± 5.3% | 0.0204 nM | 110 nM |  | 
[O-][n+]1cc(O)cc(CCCCc2ccc(Cl)c(CO)c2)c1 [OX04955] | 101 ± 1.5% | 21 ± 2.9% | 0.0355 nM | 263 nM |  | 
[O-][n+]1cc(O)cc(CCCCc2ccc(Cl)c(Br)c2)c1 [OX04956] | 98 ± 2.1% | 34 ± 6% | 0.00912 nM | 138 nM |  | 
[O-][n+]1cc(O)cc(CCCCc2ccc(Cl)c(Cl)c2)c1 [OX04957] | 102 ± 3% | 46 ± 5.8% | 0.0389 nM | 209 nM |  | 
[O-][n+]1cc(O)cc(CCCCc2ccc(Cl)c(F)c2)c1 [OX04958] | 99 ± 0.1% | 72 ± 1.3% | 0.0407 nM | 70.8 nM |  | 
[O-][n+]1cc(O)cc(CCCCc2ccc(Cl)c(C(F)F)c2)c1 [OX04959] | 95 ± 11.5% | 24 ± 2.3% | 0.00724 nM | 151 nM |  | EC50 [8]: 3.98 nM
[O-][n+]1cc(O)cc(CCCCc2ccc(Cl)c(CF)c2)c1 [OX04960] | 107 ± 2.1% | 45 ± 1.2% | 0.0102 nM | 447 nM |  | EC50 [8]: 6.31 nM
CCc1cc(CCCCc2cc(O)c[n+]([O-])c2)ccc1Cl [OX04961] | 103 ± 3.6% | 21 ± 0.3% | 0.0112 nM | 39.8 nM | no significant change | 
C=Cc1cc(CCCCc2cc(O)c[n+]([O-])c2)ccc1Cl [OX04962] | 97 ± 3.4% | 18 ± 2.2% | 0.00933 nM | 178 nM | no significant change | 
C#Cc1cc(CCCCc2cc(O)c[n+]([O-])c2)ccc1Cl [OX04963] | 106 ± 3.8% | 15 ± 1.1% | 0.00646 nM | 37.2 nM |  | 
CC(C)c1cc(CCCCc2cc(O)c[n+]([O-])c2)ccc1Cl [OX04964] | 94 ± 7.4% | 9 ± 1.4% | 0.0145 nM |  | no significant change | 
[O-][n+]1cc(O)cc(CCCCc2ccc(Cl)c(C3CC3)c2)c1 [OX04965] | 103 ± 3.7% | 9 ± 3% | 0.00398 nM |  | no significant change | 
CC1(c2cc(CCCCc3cc(O)c[n+]([O-])c3)ccc2Cl)CC1 [OX04966] | 107 ± 5.6% | 5 ± 1.5% | 0.17 nM |  | no significant change | 
Fc1cc(F)c2[nH]cc(Cc3c[nH]c4c(F)cc(F)cc34)c2c1 [PSB-16671, di(5,7-difluoro-1H-indole-3-yl)methane, reference compound] |  |  |  |  |  | Emax (GPR84 N362S): 100%; Emax (GPR84 Y332A): 100%; Emax (GPR84 Y332F): 100%
